The results in this text go back to patent US20240417410A1, “TRICYCLIC COMPOUNDS FOR THE TREATMENT OF CANCER” (Hoffmann-La Roche Inc., priority 2023, published 2024).

Broadly, the IC50 is the concentration at which inhibition is half-maximal. Usually T/C stands for the ratio of treated to control.

One data set deals with WT NRAS-BRAF complex. Nature of the data set: WT NRAS-BRAF with CYPA interaction assay (TR-FRET). In kind it is biochemical. The procedure:
In this example, TR-FRET was used to measure the compound or compound-CYPA dependent disruption of the KRAS G12V-BRAF complex to assess inhibition efficacy. The IC50 ratio between WT KRAS/HRAS/NRAS and KRAS G12V mutant was calculated as selective index, which indicated tolerability and safety profile. Disruption of WT KRAS/HRAS/NRAS-BRAF complex by compounds was detected respectively. In assay buffer containing 25 mM HEPES (PH-7.4,4-(2-hydroxyethyl)-1-piperazineethanesulfonic acid, Thermo, 15630080), 0.002% Tween20, 0.1% BSA, 100 mM NaCl, 5 mM MgCl2, 10 μM GMPPNP (Guanosine 5′-[β,γ-imido]triphosphate trisodium salt hydrate, Sigma, G0635), tagless CYPA and GMPPNP loaded 6His-RAS proteins, and GST-BRAF^RBD were mixed in a well of a 384-well assay plate at final concentrations of 50 nM, 6.25 nM and 1 nM, respectively. Compound was present in plate wells as a 16-point 3-fold dilution series starting at a final concentration of 10 μM and incubated for 3 hours. A mixture of MAb Anti-6His-XL665 (Cisbio, 61HISXLB) and Mab anti-GST-TB cryptate (Cisbio, 61GSTTLB) was then added at a final concentration of 6.67 nM and 0.21 nM, respectively, and the plate was incubated for an additional 1.5 hours. TR-FRET signal was read on a PHERstar FSX microplate reader (Ex320 nm, Em 665/615 nm). Compounds that facilitate disruption of the RAS-BRAF complex were identified as those eliciting a decrease in the TR-FRET ratio relative to DMSO control wells.
(In TR-FRET formats the signal depends on donor and acceptor labels being close together.)

For data set [1], the system named is Miapaca-2 KRAS G12C + M72I. The data set is described as follows: Stable KRAS mutant cell line viability assay (CellTiter-Glo). In kind it is cell-based. The settings on record: Homo sapiens, MIA PaCa-2, 72 h; Miapaca-2 mutant cells, 3 d. An excerpt:
(§1) The aim of the study was to determine the potency and efficacy of compounds for cell proliferation using CellTiter-Glo® (CTG) Luminescent Cell Viability Assay (Promega Corp., Madison, WI). We cloned 14 KRAS^G12C variant sequences with secondary mutations (V8A, V9Y, S17E, T58I, A59T, S65W, R68S, D69P, M72I, D92R, H95N, Y96D, Q99W and F156L) into the Miapaca-2. Totally 14 stable Miapaca-2 mutant cell lines were established through lentivirus infection. For the cell viability assay, cells were dosed with compounds in a 9-point dose-response using a 4 fold dilution series at a top dose of 10 μM. KRAS mutant cells were maintained in DMEM+10% FBS+2.5% HI Horse serum+1% PS+1 μg/mL Puromycin and seeded into 96-well plates at 800-1,500 cells per well 24 h before compound addition and then incubated with compound for 3 d before assaying viability (CellTiter-Glo, Promega). Assays were performed in biological duplicates. Nonlinear regression curves were fitted using Xfit. IC50 (absolute IC50) is the dose at which the estimated viability is 50% relative to untreated wells.

The test system of data set [2] is Miapaca-2 KRAS G12C + V9Y. The data set is described as above. The class given is cell-based. The settings on record: Miapaca-2 mutant cells, 3 d.
Source text: as §1

For data set [3], the system named is NCI-H1373-luc intracranial tumors. The data set is described as follows: Brain metastasis intracranial model, efficacy (bioluminescence). In kind it is in vivo. An excerpt: The purpose of this assay is to determine whether brain exposure of the compounds of current invention was sufficient to mediate regression of tumors in experimental Brain Metastases (BM) models.
NCI-H1373 cell line was purchased from the ATCC (CRL-5866). NCI-H1373-Luc cells were generated by WuXi AppTec. For generating NCI-H1373-Luc cell line, NCI-H1373 cells were transduced with GFP-Luc-puro lentivirus vector (HBLV-1014, HANBIO, carrying cDNA coding for firefly luciferase) and then selected with 1 μg/mL puromycin. All cells were authenticated by short tandem repeat fingerprinting, and periodically tested to be Mycoplasma free. H1373-luc cells were cultured in medium containing RPMI1640 (Thermo Fisher Scientific) plus 10% Fetal Bovine Serum (FBS, Thermo Fisher Scientific, 2.5 μg/mL puromycin and 1% Antibiotic-Antimycotic (Thermo Fisher Scientific), at 37° C. in an atmosphere of 5% CO2 in air. The medium was renewed every 2 to 3 days and tumor cells were routinely sub-cultured at a confluence of 80-90%. Cells growing in an exponential growth phase were harvested and counted for inoculation.
Murine studies were conducted at the WuXi AppTec and were performed in compliance with all applicable regulations and guidelines of the Institutional Animal Care and Use Committee (IACUC). Mice were maintained in a special pathogen-free environment and in individual ventilation cages, and food and water will be sterilized before use. 8 to 9 weeks female NU/NU nude mice (Charles River Lab.) were implanted intracarotid injection with 0.5×10^5 NCI-H1373-Luc cells in 100 μL serum-free media. When bioluminescence reached a mean of 1.28E+08 photons/second (range of 5.79E+07-2.685E+08 photons/second) at day 15 post inoculation, tumor-bearing mice were randomized into different groups with 4 mice in each group. The randomization date was denoted as treatment day 0. Afterwards, oral daily dosing of vehicle or Example 24 began and continued for 14 days. Baseline bioluminescent imaging (BLI) began 24 hours prior to initial dosing with vehicle or test articles, and additional imaging time points for all animals were measured twice a week by Xenogen machine (PerkinElmer IVIS Lumina II) between 0-14 days post grouping. […]
TGI (tumor growth inhibition) was calculated for each group using the formula: TGI (%)=[1−(Ti−T0)/(Vi−V0)]×100; Ti is the average tumor bioluminescence of a treatment group on a given day, T0 is the average tumor bioluminescence of the treatment group on the day of treatment start, Vi is the average tumor bioluminescence of the vehicle control group on the same day with Ti, and V0 is the average tumor bioluminescence of the vehicle group on the day of treatment start. […]

[4] abbreviates: day 14, 30 mg/kg, PO, QD, NCI-H1373-luc intracranial.

The structures appear in SMILES notation.

With `CO[C@@H](C)c1ncc(N2CCN(C)CC2)cc1-c1c2c3cc(cc4c3n1CCC4)-c1csc(n1)C[C@H](NC(=O)[C@H]1[C@H](C)[C@@H]1C)C(=O)N1CCC[C@H](N1)C(=O)OCC(C)(C)C2` (atropisomer, axis not shown; (M)) [Example 24, (1r,2R,3S)-N-[(7S,13S)-(20M)-20-[2-[(1S)-1-methoxyethyl]-5-(4-methylpiperazin-1-yl)-3-pyridyl]-17,17-dimethyl-8,14-dioxo-15-oxa-4-thia-9,21,30,31-tetrazahexacyclo[23.3.1.1^2,5.1^9,13.0^19,27.0^21,26]hentriaconta-1 (28),2,5 (31), 19,25 (29),26-hexaen-7-yl]-2,3-dimethyl-cyclopropanecarboxamide], the “Selectivity Index (IC50 ratio) WT NRAS/KRAS G12V” value with WT NRAS-BRAF complex worked out at 5.0. The IC50 in data set [1] was 1 nM. The IC50 in data set [2] worked out at 1 nM. In addition, the “tolerability (overt toxicity, animal weight)” value in data set [3] (30 mg/kg once daily for 14 days, NCI-H1373-luc intracranial model) is given as “no sign of overt toxicity or animal weight loss”. For the same molecule, in data set [3] (setting [4]), the ROI is 1.34 ± 0.75 ×10^7 photon/s, the T/C was found to be 0.52% and the TGI amounted to 104.68%.
